# From PMC5218480 (PLoS ONE, 2017)
# Test system: MV-4-11 cells
# Experiment: Gene expression microarray analysis (Affymetrix PrimeView) and GSEA
# Type: cell-based, human
# Design: RFU PODN (11730768_x_at) / Fold change /veh PODN (11730768_x_at) / RFU LINC00158 (11744669_a_at) / Fold change /veh LINC00158 (11744669_a_at) / RFU DUSP10 (11751237_a_at) / Fold change /veh DUSP10 (11751237_a_at) / RFU ID3 (11757404_x_at) / Fold change /veh ID3 (11757404_x_at) / RFU PLEKHG5 (11737974_s_at) / Fold change /veh PLEKHG5 (11737974_s_at) / RFU LRRC4B (11730491_at) / Fold change /veh LRRC4B (11730491_at) / RFU GIMAP4 (11747438_a_at) / Fold change /veh GIMAP4 (11747438_a_at) / RFU KRT8 (11758183_x_at) / Fold change /veh KRT8 (11758183_x_at) / RFU CNN1 (11734310_a_at) / Fold change /veh CNN1 (11734310_a_at) / RFU VPS37D (11726825_at) / Fold change /veh VPS37D (11726825_at) / RFU C10orf10 (11716522_x_at) / Fold change /veh C10orf10 (11716522_x_at) / RFU KIR2DL2 /// KIR2DL4 /// KIR2DL5A /// KIR2DL5B /// KIR2DS1 /// KIR2DS2 /// KIR2DS3 /// KIR2DS4 /// KIR3DL3 /// KIR3DL3 /// KIR3DS1 (11738374_at) / Fold change /veh KIR2DL2 /// KIR2DL4 /// KIR2DL5A /// KIR2DL5B /// KIR2DS1 /// KIR2DS2 /// KIR2DS3 /// KIR2DS4 /// KIR3DL3 /// KIR3DL3 /// KIR3DS1 (11738374_at) / RFU C1QL1 (11718748_at) / Fold change /veh C1QL1 (11718748_at) / RFU TMPRSS4 (11747572_a_at) / Fold change /veh TMPRSS4 (11747572_a_at) / RFU HAMP (11756126_x_at) / Fold change /veh HAMP (11756126_x_at) / RFU RNFT2 (11725882_a_at) / Fold change /veh RNFT2 (11725882_a_at) / RFU NR4A2 (11747474_a_at) / Fold change /veh NR4A2 (11747474_a_at) / RFU ABCC12 (11746883_a_at) / Fold change /veh ABCC12 (11746883_a_at) / RFU TMEM136 (11760407_x_at) / Fold change /veh TMEM136 (11760407_x_at) / RFU CLDN22 /// WWC2 (11732394_at) / Fold change /veh CLDN22 /// WWC2 (11732394_at) / RFU HLA-DPB1 (11760878_x_at) / Fold change /veh HLA-DPB1 (11760878_x_at) / RFU SPINT1 (11716480_a_at) / Fold change /veh SPINT1 (11716480_a_at) / RFU GAP43 (11754022_s_at) / Fold change /veh GAP43 (11754022_s_at) / RFU A4GNT (11735810_at) / Fold change /veh A4GNT (11735810_at) / RFU PRB3 (11715151_x_at) / Fold change /veh PRB3 (11715151_x_at) / RFU TUBB4B (11761932_at) / Fold change /veh TUBB4B (11761932_at) / RFU CAPN14 (11732068_a_at) / Fold change /veh CAPN14 (11732068_a_at) / RFU TMCC2 (11721928_a_at) / Fold change /veh TMCC2 (11721928_a_at) / RFU IRGQ (11745062_a_at) / Fold change /veh IRGQ (11745062_a_at) / RFU FAM174B (11720279_a_at) / Fold change /veh FAM174B (11720279_a_at) / RFU TMPRSS4 (11748680_a_at) / Fold change /veh TMPRSS4 (11748680_a_at) / RFU FAM212B (11763350_a_at) / Fold change /veh FAM212B (11763350_a_at) / RFU PLEKHG5 (11743358_a_at) / Fold change /veh PLEKHG5 (11743358_a_at) / RFU ZSCAN30 (11745921_a_at) / Fold change /veh ZSCAN30 (11745921_a_at) / RFU CMKLR1 (11741424_a_at) / Fold change /veh CMKLR1 (11741424_a_at) / RFU LOC101060620 /// MAPK8IP1 (11723275_at) / Fold change /veh LOC101060620 /// MAPK8IP1 (11723275_at) / RFU SPTSSB (11747773_x_at) / Fold change /veh SPTSSB (11747773_x_at) / RFU PRSS12 (11739890_at) / Fold change /veh PRSS12 (11739890_at) / RFU BIN1 (11741810_x_at) / Fold change /veh BIN1 (11741810_x_at) / RFU WNT11 (11732464_a_at) / Fold change /veh WNT11 (11732464_a_at) / RFU C10orf10 (11716521_a_at) / Fold change /veh C10orf10 (11716521_a_at) / RFU C5orf56 (11738089_at) / Fold change /veh C5orf56 (11738089_at) / RFU CYB561 (11721691_x_at) / Fold change /veh CYB561 (11721691_x_at) / RFU ANKRD19P (11752326_a_at) / Fold change /veh ANKRD19P (11752326_a_at) / RFU OR2T12 /// OR2T33 /// OR2T8 (11738714_s_at) / Fold change /veh OR2T12 /// OR2T33 /// OR2T8 (11738714_s_at) / RFU VCAN (11748164_a_at) / Fold change /veh VCAN (11748164_a_at) / RFU JSRP1 (11732532_at) / Fold change /veh JSRP1 (11732532_at) / RFU KRTAP10-11 (11738290_x_at) / Fold change /veh KRTAP10-11 (11738290_x_at) / RFU MYO3A (11730013_a_at) / Fold change /veh MYO3A (11730013_a_at) / RFU EBF3 (11725865_a_at) / Fold change /veh EBF3 (11725865_a_at) / RFU CAMK2N1 (11719241_x_at) / Fold change /veh CAMK2N1 (11719241_x_at) / RFU C5orf56 (11738088_a_at) / Fold change /veh C5orf56 (11738088_a_at) / RFU OLFML3 (11715873_a_at) / Fold change /veh OLFML3 (11715873_a_at) / RFU LOC100653217 /// NTM (11731650_a_at) / Fold change /veh LOC100653217 /// NTM (11731650_a_at) / RFU MAPK11 (11762145_a_at) / Fold change /veh MAPK11 (11762145_a_at) / RFU FIZ1 (11724087_x_at) / Fold change /veh FIZ1 (11724087_x_at) / RFU OASL (11726364_x_at) / Fold change /veh OASL (11726364_x_at) / RFU SOX15 (11748057_x_at) / Fold change /veh SOX15 (11748057_x_at) / RFU CD79A (11719716_a_at) / Fold change /veh CD79A (11719716_a_at) / RFU HIST1H1D (11736915_at) / Fold change /veh HIST1H1D (11736915_at) / RFU CASKIN2 (11723855_a_at) / Fold change /veh CASKIN2 (11723855_a_at) / RFU LOC730098 (11760151_x_at) / Fold change /veh LOC730098 (11760151_x_at) / RFU OR4N2 (11742367_at) / Fold change /veh OR4N2 (11742367_at) / RFU PRRT2 (11749266_a_at) / Fold change /veh PRRT2 (11749266_a_at) / RFU SNX32 (11753110_a_at) / Fold change /veh SNX32 (11753110_a_at) / RFU CDHR5 (11726645_a_at) / Fold change /veh CDHR5 (11726645_a_at) / RFU RCAN1 (11760418_a_at) / Fold change /veh RCAN1 (11760418_a_at) / RFU FAM167A (11723789_a_at) / Fold change /veh FAM167A (11723789_a_at) / RFU FAM26E (11764081_at) / Fold change /veh FAM26E (11764081_at) / RFU ISYNA1 (11749810_s_at) / Fold change /veh ISYNA1 (11749810_s_at) / RFU ACY1 (11761880_at) / Fold change /veh ACY1 (11761880_at) / RFU 11764098_at / Fold change /veh 11764098_at / RFU SAMD14 (11745864_x_at) / Fold change /veh SAMD14 (11745864_x_at) / RFU NPB (11741838_a_at) / Fold change /veh NPB (11741838_a_at) / RFU TMPRSS6 (11731388_a_at) / Fold change /veh TMPRSS6 (11731388_a_at) / RFU KRTAP10-2 (11738614_at) / Fold change /veh KRTAP10-2 (11738614_at) / RFU ARHGAP8 /// PRR5-ARHGAP8 (11727945_x_at) / Fold change /veh ARHGAP8 /// PRR5-ARHGAP8 (11727945_x_at) / RFU KRTAP5-7 /// NADSYN1 (11734609_at) / Fold change /veh KRTAP5-7 /// NADSYN1 (11734609_at) / RFU RASL12 (11751679_a_at) / Fold change /veh RASL12 (11751679_a_at) / RFU CDKN2B (11736163_a_at) / Fold change /veh CDKN2B (11736163_a_at) / RFU PRF1 (11729649_at) / Fold change /veh PRF1 (11729649_at) / RFU, ZNF638 /// ZNF638-IT1 / Fold change vs veh, ZNF638 /// ZNF638-IT1 / RFU, PANK3 / Fold change vs veh, PANK3 / RFU, SH3YL1 / Fold change vs veh, SH3YL1 / RFU, ZEB2 / Fold change vs veh, ZEB2 / RFU, NRIP1 / Fold change vs veh, NRIP1 / RFU, PTTG1IP / Fold change vs veh, PTTG1IP / RFU, CAPN2 / Fold change vs veh, CAPN2 / RFU, MED14 / Fold change vs veh, MED14 / RFU, SNORA58 / Fold change vs veh, SNORA58 / RFU, C1orf63 / Fold change vs veh, C1orf63 / RFU, LRRFIP1 / Fold change vs veh, LRRFIP1 / RFU, NDUFAF7 / Fold change vs veh, NDUFAF7 / RFU, SLC12A2 / Fold change vs veh, SLC12A2 / RFU, IBTK / Fold change vs veh, IBTK / RFU, ESF1 / Fold change vs veh, ESF1 / Fold change vs veh, TMEM50B / RFU, TAOK1 / Fold change vs veh, TAOK1 / RFU, ACBD3 / Fold change vs veh, ACBD3 / RFU, TMA16 / Fold change vs veh, TMA16 / RFU, RWDD3 / Fold change vs veh, RWDD3 / RFU, BCAT1 / Fold change vs veh, BCAT1 / RFU, EDEM3 / Fold change vs veh, EDEM3 / RFU, TMEM33 / Fold change vs veh, TMEM33 / RFU, WDR75 / Fold change vs veh, WDR75 / RFU, AHCTF1 / Fold change vs veh, AHCTF1 / RFU, TFRC / Fold change vs veh, TFRC / RFU, ZDHHC17 / Fold change vs veh, ZDHHC17 / RFU, NOM1 / Fold change vs veh, NOM1 / RFU, ARL8B / Fold change vs veh, ARL8B / RFU, ZBTB11 / Fold change vs veh, ZBTB11 / RFU, TAMM41 / Fold change vs veh, TAMM41 / RFU, KIAA1704 /// LOC100996395 / Fold change vs veh, KIAA1704 /// LOC100996395 / RFU, ING1 / Fold change vs veh, ING1 / RFU, TRMT61B / Fold change vs veh, TRMT61B / RFU, FUBP3 / Fold change vs veh, FUBP3 / RFU, TP53 / Fold change vs veh, TP53 / RFU, TNKS2 / Fold change vs veh, TNKS2 / RFU, ZFP14 / Fold change vs veh, ZFP14 / RFU, ACTR2 / Fold change vs veh, ACTR2 / RFU, PPP3R1 / Fold change vs veh, PPP3R1 / RFU, PIK3R1 / Fold change vs veh, PIK3R1 / RFU, HNRNPA1 / Fold change vs veh, HNRNPA1 / RFU, RNF170 / Fold change vs veh, RNF170 / RFU, ZNF28 / Fold change vs veh, ZNF28 / RFU, RNGTT / Fold change vs veh, RNGTT / RFU, OGT / Fold change vs veh, OGT / RFU, BRD1 / Fold change vs veh, BRD1 / RFU, MARS / Fold change vs veh, MARS / RFU, ZNF655 / Fold change vs veh, ZNF655 / RFU, FAHD1 / Fold change vs veh, FAHD1 / RFU, BDP1 / Fold change vs veh, BDP1 / RFU, LRRCC1 / Fold change vs veh, LRRCC1 / RFU, ARID1A / Fold change vs veh, ARID1A / RFU, ZNF146 / Fold change vs veh, ZNF146 / RFU, ZNF330 / Fold change vs veh, ZNF330 / RFU, GPN3 / Fold change vs veh, GPN3 / RFU, C9orf123 / Fold change vs veh, C9orf123 / RFU, N4BP2L2 / Fold change vs veh, N4BP2L2 / RFU, ARFIP1 / Fold change vs veh, ARFIP1 / RFU, FAM179B / Fold change vs veh, FAM179B / RFU, BCL10 / Fold change vs veh, BCL10 / RFU, UHRF1BP1L / Fold change vs veh, UHRF1BP1L / RFU, BET1 / Fold change vs veh, BET1 / RFU, CNOT2 / Fold change vs veh, CNOT2 / RFU, ZNF268 / Fold change vs veh, ZNF268 / Fold change vs veh, ZNF507 / RFU, DGCR2 / Fold change vs veh, DGCR2 / RFU, WDSUB1 / Fold change vs veh, WDSUB1 / Fold change vs veh, HSP90B1 /// MIR3652 / RFU, ADSS / Fold change vs veh, ADSS / RFU, GK / Fold change vs veh, GK / RFU, ZNF148 / Fold change vs veh, ZNF148 / RFU, TAF9 / Fold change vs veh, TAF9 / RFU, SLC1A5 / Fold change vs veh, SLC1A5 / RFU, SLMO2 / Fold change vs veh, SLMO2 / RFU, ABCC4 / Fold change vs veh, ABCC4 / RFU, LOC101060439 /// RAP1B / Fold change vs veh, LOC101060439 /// RAP1B / RFU, RFX7 / Fold change vs veh, RFX7 / RFU, GTPBP10 / Fold change vs veh, GTPBP10 / RFU, CNEP1R1 / Fold change vs veh, CNEP1R1 / RFU, BIVM-ERCC5 /// ERCC5 / Fold change vs veh, BIVM-ERCC5 /// ERCC5 / RFU, ILF3 / Fold change vs veh, ILF3 / RFU 11762660_at / Fold change /veh 11762660_at / RFU VCAN (11757783_s_at) / Fold change /veh VCAN (11757783_s_at) / RFU DDX43 (11728927_at) / Fold change /veh DDX43 (11728927_at) / RFU KRT8 (11758188_x_at) / Fold change /veh KRT8 (11758188_x_at) / RFU NKD1 (11759106_at) / Fold change /veh NKD1 (11759106_at) / RFU SRD5A1 (11742802_a_at) / Fold change /veh SRD5A1 (11742802_a_at) / RFU TPSAB1 /// TPSB2 (11721975_s_at) / Fold change /veh TPSAB1 /// TPSB2 (11721975_s_at) / RFU GSTM3 (11746129_a_at) / Fold change /veh GSTM3 (11746129_a_at) / RFU IL23R (11737362_x_at) / Fold change /veh IL23R (11737362_x_at) / RFU TMEM51 (11727254_a_at) / Fold change /veh TMEM51 (11727254_a_at) / RFU PIWIL2 (11732686_x_at) / Fold change /veh PIWIL2 (11732686_x_at) / RFU ORM1 (11744905_x_at) / Fold change /veh ORM1 (11744905_x_at) / RFU CCDC152 (11743942_at) / Fold change /veh CCDC152 (11743942_at) / RFU ECM1 (11717891_a_at) / Fold change /veh ECM1 (11717891_a_at) / RFU IL23R (11748794_a_at) / Fold change /veh IL23R (11748794_a_at) / RFU TNFAIP8L3 (11732012_x_at) / Fold change /veh TNFAIP8L3 (11732012_x_at) / RFU MBOAT4 (11741988_at) / Fold change /veh MBOAT4 (11741988_at) / RFU 11764193_at / Fold change /veh 11764193_at / RFU TMEM53 (11763286_at) / Fold change /veh TMEM53 (11763286_at) / RFU MAGEB2 (11727129_at) / Fold change /veh MAGEB2 (11727129_at) / RFU TMEM200A (11744735_a_at) / Fold change /veh TMEM200A (11744735_a_at) / RFU CCDC152 (11751479_a_at) / Fold change /veh CCDC152 (11751479_a_at) / RFU FAM211A (11726209_a_at) / Fold change /veh FAM211A (11726209_a_at) / RFU RGS16 (11746705_a_at) / Fold change /veh RGS16 (11746705_a_at) / RFU VCAN (11755009_s_at) / Fold change /veh VCAN (11755009_s_at) / RFU RHOB (11743442_s_at) / Fold change /veh RHOB (11743442_s_at) / RFU RGS16 (11720943_a_at) / Fold change /veh RGS16 (11720943_a_at) / RFU RGS16 (11720944_at) / Fold change /veh RGS16 (11720944_at) / RFU, VPS4B / Fold change vs veh, VPS4B / RFU, CREB1 / Fold change vs veh, CREB1 / RFU, DNAJC13 / Fold change vs veh, DNAJC13 / RFU, GNAQ / Fold change vs veh, GNAQ / RFU, CDK5R1 / Fold change vs veh, CDK5R1 / RFU, ZRANB3 / Fold change vs veh, ZRANB3 / RFU, CUL4A / Fold change vs veh, CUL4A / RFU, CCNY / Fold change vs veh, CCNY / RFU, UFL1 / Fold change vs veh, UFL1 / RFU, COG3 / Fold change vs veh, COG3 / RFU, DIAPH2 / Fold change vs veh, DIAPH2 / RFU, SKA2 / Fold change vs veh, SKA2 / RFU, AFF3 / Fold change vs veh, AFF3 / RFU, LMF1 / Fold change vs veh, LMF1 / RFU, IPO11 / Fold change vs veh, IPO11 / RFU, DFFB / Fold change vs veh, DFFB / RFU, FOXP1 / Fold change vs veh, FOXP1 / RFU, CARD8 / Fold change vs veh, CARD8 / RFU, STRN3 / Fold change vs veh, STRN3 / RFU, ADK / Fold change vs veh, ADK / RFU, RASSF2 / Fold change vs veh, RASSF2 / RFU, WIPF1 / Fold change vs veh, WIPF1 / RFU, LARP1B / Fold change vs veh, LARP1B / RFU, RASA1 / Fold change vs veh, RASA1 / RFU, RB1 / Fold change vs veh, RB1 / RFU, PPFIA1 / Fold change vs veh, PPFIA1 / RFU, MAT2A / Fold change vs veh, MAT2A / RFU, CCT5 / Fold change vs veh, CCT5 / RFU, WDR92 / Fold change vs veh, WDR92 / RFU, CUX1 / Fold change vs veh, CUX1 / RFU, TTC7A / Fold change vs veh, TTC7A / RFU, TMEM135 / Fold change vs veh, TMEM135 / RFU, DEPTOR / Fold change vs veh, DEPTOR / RFU, CPM / Fold change vs veh, CPM / RFU, DNAJB6 / Fold change vs veh, DNAJB6 / RFU, CACNA2D3 / Fold change vs veh, CACNA2D3 / RFU, DTX4 / Fold change vs veh, DTX4 / RFU, TFCP2 / Fold change vs veh, TFCP2 / RFU, GMCL1 /// GMCL1P1 / Fold change vs veh, GMCL1 /// GMCL1P1 / RFU, AEBP2 / Fold change vs veh, AEBP2 / RFU, SNHG1 /// SNORD22 /// SNORD25 /// SNORD26 /// SNORD27 /// SNORD28 /// SNORD29 /// SNORD31 / Fold change vs veh, SNHG1 /// SNORD22 /// SNORD25 /// SNORD26 /// SNORD27 /// SNORD28 /// SNORD29 /// SNORD31 / Fold change (Aza/veh), C12orf56 (ProbeSet 11735607_a_at) / Fold change (ACY-1035/veh), C12orf56 (ProbeSet 11735607_a_at) / Fold change (Aza/veh), FGFR1OP (ProbeSet 11751329_s_at) / Fold change (ACY-1035/veh), FGFR1OP (ProbeSet 11751329_s_at) / Fold change (Aza/veh), VPS36 (ProbeSet 11739960_a_at) / Fold change (ACY-1035/veh), VPS36 (ProbeSet 11739960_a_at) / RFU SYPL1 (11715823_x_at) / Fold change /veh SYPL1 (11715823_x_at) / RFU IGFBP7 (11715501_s_at) / Fold change /veh IGFBP7 (11715501_s_at) / RFU REEP3 (11722064_at) / Fold change /veh REEP3 (11722064_at) / RFU IGLL1 (11728026_x_at) / Fold change /veh IGLL1 (11728026_x_at): dose or concentration left out as unconfirmed
# Details: ProbeSet 11720154_at; LIST B
smiles,measurement,value
Nc1ccc(-c2cccs2)cc1NC(=O)c1ccc2c(c1)cc(C1CC1)n2CCN1CCOCC1 [ACY-1035],"Fold change vs veh, NRIP1",0.88
